Laboratory results taken from patent publication US20080261936A1, “METHODS OF REDUCING THE BODY WEIGHT OF A SUBJECT BY ADMINISTERING A FATTY ACID ESTER OF AN ESTROGEN OR ESTROGEN DERIVATIVE IN AN OIL AND COMPOSITIONS CONTAINING THE SAME” (Manhattan Pharmaceuticals, Inc., priority 2006, published 2008).
Converted amounts (≈) assume the structure as drawn.

Assay: Oil evaluation: solubility behavior of oleoyl-estrone, 60 mg/g in single oils
Assay type: physicochemical
Settings: for solubility at 96 h: oil or lipid, after 96 hr, more oil added
Protocol: An oil evaluation was done to determine the solubility behavior of oleoyl-estrone as a function of type of oil, concentration and temperature. The solubility of oleoyl-estrone was evaluated at concentrations of 60 mg/g and 200 mg/g. […]

[1] = 60 mg/g in Canola at RT (about 22° C.)
[2] = 60 mg/g in Captex 300-6C at RT (about 22° C.)
[3] = 60 mg/g in Captex 300 EP at RT (about 22° C.)
[4] = 60 mg/g in Corn at RT (about 22° C.)
[5] = 60 mg/g in Labrafac at RT (about 22° C.)
[6] = 60 mg/g in Labrasol at RT (about 22° C.)
[7] = 60 mg/g in Olive at RT (about 22° C.)
[8] = 60 mg/g in Safflower at RT (about 22° C.)
[9] = 60 mg/g in Sesame at RT (about 22° C.)
[10] = 60 mg/g in Soybean at RT (about 22° C.)

Solubility Cycled to 5° C. after 96 hr (60 mg/g in Canola): Dissolved
Solubility After 24 hr [1]: Dissolved
Solubility After 96 hr [1]: Dissolved
Solubility Cycled to 5° C. after 96 hr (60 mg/g in Captex 300-6C): Dissolved
Solubility After 24 hr [2]: Dissolved
Solubility After 96 hr [2]: Dissolved
Solubility Cycled to 5° C. after 96 hr (60 mg/g in Captex 300 EP): Dissolved
Solubility After 24 hr [3]: Dissolved
Solubility After 96 hr [3]: Dissolved
Solubility Cycled to 5° C. after 96 hr (60 mg/g in Corn): Dissolved
Solubility After 24 hr [4]: Dissolved
Solubility After 96 hr [4]: Dissolved
Solubility Cycled to 5° C. after 96 hr (60 mg/g in Labrafac): Dissolved
Solubility After 24 hr [5]: Dissolved
Solubility After 96 hr [5]: Dissolved
Solubility Cycled to 5° C. after 96 hr (60 mg/g in Labrafil 1944 CS): Dissolved
Solubility After 96 hr (60 mg/g in Labrafil 1944 CS at RT (about 22° C.)): NOT Dissolved more oil
Solubility Cycled to 5° C. after 96 hr (60 mg/g in Labrafil M 125CS): Dissolved
Solubility After 96 hr (60 mg/g in Labrafil M 125CS at RT (about 22° C.)): NOT Dissolved more oil
Solubility After 24 hr [6]: Dissolved
Solubility After 96 hr [6]: Dissolved
Solubility Cycled to 5° C. after 96 hr (60 mg/g in Olive): Dissolved
Solubility After 24 hr [7]: Dissolved
Solubility After 96 hr [7]: Dissolved
Solubility Cycled to 5° C. after 96 hr (60 mg/g in Safflower): Dissolved
Solubility After 24 hr [8]: Dissolved
Solubility After 96 hr [8]: Dissolved
Solubility Cycled to 5° C. after 96 hr (60 mg/g in Sesame): Dissolved
Solubility After 24 hr [9]: Dissolved
Solubility After 96 hr [9]: Dissolved
Solubility Cycled to 5° C. after 96 hr (60 mg/g in Soybean): Dissolved
Solubility After 24 hr [10]: Dissolved
Solubility After 96 hr [10]: Dissolved
solubility at 96 h (Labrafil 1944 CS (oil), in Labrafil 1944 CS at RT (about 22° C.)): ~5000 µg/mL (≈ 9.35 mM)
solubility at 96 h (Labrafil M 125CS (oil), in Labrafil M 125CS at RT (about 22° C.)): ≤ 3000 µg/mL
SMILES: CCCCCCCC/C=C\CCCCCCCC(=O)Oc1ccc2c(c1)CC[C@@H]1[C@@H]2CC[C@]2(C)C(=O)CC[C@@H]12 [oleoyl-estrone, [3(Z)]-3-[(1-oxo-9-octadecenyl)oxy]-estra-1,3,5(10)-trien-17-one]
